Laboratory results taken from patent US20260151403A1, “NEK7 DEGRADERS AND METHODS OF USE THEREOF” (Captor Therapeutics S.A., priority 2022, published 2026).

Key:
NEK7-HiBiT protein = NEK7-HiBiT protein (Homo sapiens, UniProt Q8TDX7); assay: NEK7-HiBiT degradation assay (Nano-Glo HiBiT Lytic Assay) in HEK293 NEK7-HiBiT cells; assay type: cell-based; conditions: 24 h, conc. 0.1, 1 and 10 μM tested, concentration of the table values not stated, mean of 3 technical replicates
Procedure: HEK293 NEK7-HiBiT cells were generated using CRISPR-Cas9 system. HEK293 cells were transformed with pSpCas9-BB-2A-Puro v2.0 plasmid carrying gRNA targeting the N-terminus of NEK7 and ssODN template containing the HiBiT tag sequence with flanking homology sequences. Neon Transfection System (Thermo Fisher Scientific) was used for electroporation. HEK293 NEK7-HiBiT cells were cultured with DMEM Glutamax (Gibco) supplemented with 10% heat inactivated FBS (Gibco). After transfection the culture medium was changed to DMEM Glutamax with 10% heat-inactivated FBS and 1% Penicillin-Streptomycin (Biowest) supplemented with Puromycin (2 μg/ml; Invivogen) for clonal selection. In order to isolate single cell clones for further validation and analysis, limiting dilution cloning in 96-well plates was performed. When the single clones reached confluency, HiBiT Lytic Assay (Promega) was performed in order to identify HiBiT positive clones. The clone selected for further studies was verified and validated using genotyping and HiBiT Blotting (Promega).
Selected clone of HEK293 NEK7-HiBiT cells was maintained in the DMEM-Glutamax medium supplemented with 10% of heat-inactivated FBS (Gibco) and 1% of Penicillin-Streptomycin Solution 100x (Biowest) at 37° C., 5% CO2 and subcultured every 2-3 days.
For Nano-Glo HiBiT Lytic Assay HEK293 NEK7-HiBiT cells were seeded at the density 2×10^3 cells in triplicates in the 40 μL of growth medium per single well on 384 well plate (Greiner Bio-One). Compounds or DMSO were added to treatment plates using Echo555 Liquid Handler and incubated at 37° C., 5% CO2 for 24 hours. After incubation 40 μL of Nano-Glo HiBiT Lytic Reagent (prepared according to the manufacturer protocol) were added to 40 μL of the cell culture medium present in each well. The plate content was briefly mixed (460 rpm) on an orbital shaker to ensure cell lysis. The plate was left at RT protected from light for another 10 min to stabilize the luminescent signal. The luminescence signal was measured using CLARIOstar Multimode Plate Reader. Focus and gain were adjusted to DMSO treated cells. The results were calculated as the NEK7-HiBiT % relative to the DMSO control of 3 technical replicates relative to the DMSO control.
HEK293 NEK7-HiBiT cells were treated with the compounds (conc. 0.1, 1 and 10 μM) or DMSO for 24 h. After incubation with compounds NEK7-HiBiT degradation was measured as a luminescence signal using CLARIOstar Multimode Plate reader.
Additionally, compounds reducing NEK7-HiBiT protein level by >=50% at 0.1 μM, were also identified.

[1] = molecular target: T1, [NEK7]-[compound of formula (I)]-[CRBN/DDB1] complex (Homo sapiens, UniProt Q8TDX7+Q96SW2); assay: HTRF ternary complex assay; assay type: binding; conditions: dose-response, 180 min at 25° C.; for EC50: read-out: HTRF ternary complex Average pEC50 by molecule (converted)
T1 sequence (Q8TDX7 whole entry): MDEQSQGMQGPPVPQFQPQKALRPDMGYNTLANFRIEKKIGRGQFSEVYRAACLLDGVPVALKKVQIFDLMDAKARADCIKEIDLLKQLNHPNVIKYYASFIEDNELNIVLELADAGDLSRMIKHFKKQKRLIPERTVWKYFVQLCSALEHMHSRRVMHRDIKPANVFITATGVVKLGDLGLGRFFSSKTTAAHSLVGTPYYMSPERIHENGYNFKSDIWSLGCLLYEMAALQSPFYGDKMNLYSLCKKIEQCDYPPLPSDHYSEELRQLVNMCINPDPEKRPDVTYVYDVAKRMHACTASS
T1 sequence (Q96SW2 whole entry): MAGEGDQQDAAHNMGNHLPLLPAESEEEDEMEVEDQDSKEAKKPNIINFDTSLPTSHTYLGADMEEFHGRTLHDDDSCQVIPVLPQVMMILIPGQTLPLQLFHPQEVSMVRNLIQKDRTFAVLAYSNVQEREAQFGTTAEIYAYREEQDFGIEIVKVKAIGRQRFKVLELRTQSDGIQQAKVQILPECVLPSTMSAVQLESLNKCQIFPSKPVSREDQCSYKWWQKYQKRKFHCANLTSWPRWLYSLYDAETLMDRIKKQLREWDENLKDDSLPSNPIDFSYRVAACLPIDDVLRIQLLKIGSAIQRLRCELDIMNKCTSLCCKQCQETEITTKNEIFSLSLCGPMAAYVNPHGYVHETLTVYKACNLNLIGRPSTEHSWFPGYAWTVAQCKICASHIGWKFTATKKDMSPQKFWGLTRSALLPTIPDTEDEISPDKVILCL
T1 sequence (Q16531 whole entry partner): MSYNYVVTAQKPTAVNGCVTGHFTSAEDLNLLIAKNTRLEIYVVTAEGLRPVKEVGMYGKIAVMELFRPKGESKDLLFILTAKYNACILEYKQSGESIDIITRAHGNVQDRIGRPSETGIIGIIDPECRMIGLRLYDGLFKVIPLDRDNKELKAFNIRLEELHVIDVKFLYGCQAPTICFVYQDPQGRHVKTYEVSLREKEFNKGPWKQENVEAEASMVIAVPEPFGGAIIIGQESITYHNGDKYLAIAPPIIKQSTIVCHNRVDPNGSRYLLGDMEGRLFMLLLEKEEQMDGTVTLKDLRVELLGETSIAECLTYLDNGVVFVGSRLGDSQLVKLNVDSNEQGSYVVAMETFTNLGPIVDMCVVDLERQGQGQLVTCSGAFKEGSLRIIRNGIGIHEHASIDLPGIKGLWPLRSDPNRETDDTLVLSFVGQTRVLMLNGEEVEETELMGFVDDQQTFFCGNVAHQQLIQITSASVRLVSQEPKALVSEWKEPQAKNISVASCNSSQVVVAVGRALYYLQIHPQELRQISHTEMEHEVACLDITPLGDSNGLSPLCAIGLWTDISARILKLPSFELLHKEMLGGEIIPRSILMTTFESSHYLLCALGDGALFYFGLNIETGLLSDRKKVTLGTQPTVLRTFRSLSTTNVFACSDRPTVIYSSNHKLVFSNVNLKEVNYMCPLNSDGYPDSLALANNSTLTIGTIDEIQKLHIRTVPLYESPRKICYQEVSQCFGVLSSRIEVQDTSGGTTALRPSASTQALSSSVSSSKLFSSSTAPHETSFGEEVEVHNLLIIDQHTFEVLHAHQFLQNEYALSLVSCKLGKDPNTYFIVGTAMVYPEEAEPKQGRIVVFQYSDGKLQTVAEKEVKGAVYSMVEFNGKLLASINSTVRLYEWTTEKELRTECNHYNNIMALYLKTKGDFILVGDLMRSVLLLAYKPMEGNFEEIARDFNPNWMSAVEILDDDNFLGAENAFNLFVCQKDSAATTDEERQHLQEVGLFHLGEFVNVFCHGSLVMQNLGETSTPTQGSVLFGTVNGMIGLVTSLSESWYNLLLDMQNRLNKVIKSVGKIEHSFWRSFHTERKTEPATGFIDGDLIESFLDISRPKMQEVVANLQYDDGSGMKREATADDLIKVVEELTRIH
Procedure: The effect of the molecular glue compounds of the invention on the formation of a ternary complex composed of [NEK7]-[compound of formula (I)]-[CRBN/DDB1] was investigated.
Mix solution of proteins and reagents was prepared: • 24 nM NEK7, 52.8 nM 6×His-CRBN/Strep-DDB1, 3 nM of Streptavidin-Eu cryptate […] and 6.67 nM of Anti-6×his-d2 […] was prepared in PPI Europium detection buffer (Cisbio) with 1 mM DTT.
The tested compounds in dose-response were dispensed onto a white 384-well low volume plate (Greiner, 784075). DMSO was backfilled to all wells, resulting in a final DMSO content of 0.5%. Wells containing only DMSO served as background.
The plate was sealed with transparent film and shaken using a VibroTurbulator for 60 sec at level 3.
The plate was then spun down shortly (10 s, 1000 rcf) and incubated at 25° C. for 180 min.
The read-out was performed with plate reader (Pherastar, BMG Labtech) in time resolved fluorescence mode. Filterset: TR 337 665 620.
The results were analyzed as follows: • 1) an average of fluorescence for background signal was calculated and used as a negative control; • 2) raw fluorescence values for tested compounds were normalized against negative controls; • 3) saturation curve was fitted to specific binding with Hill slope model; • 4) EC50 and pEC50 values were determined.

[2] = molecular target: T1, [NEK7]-[compound of formula (I)]-[CRBN/DDB1] complex; assay: AlphaLISA dose response ternary complex formation assay; assay type: binding; conditions: 1 μM compound, normalized to maximum signal of Compound 2 (positive control) and DMSO background; for activation at 1 µM: read-out: Normalized AlphaLISA ternary complex average signal at 1 μM molecule
Procedure: The effect of the molecular glue compounds of the invention on the formation of a ternary complex composed of [NEK7]-[compound of formula (I)]-[CRBN/DDB1] was investigated with two methods: AlphaLISA dose response assay or HTRF ternary complex assay.
Two types of protein solution were prepared: • 200 nM biotinylated NEK7, 40 μg/ml AlphaScreen Streptavidin-coated Donor Beads in HBS (10 mM HEPES, 150 mM NaCL, pH 7.4) buffer with 0.1% Tween-20 and 1 mM DTT, • 200 nM 6×His-CRBN/Strep-DDB1, 40 μg/ml AlphaLISA Anti-6×His Acceptor beads in HBS buffer with 0.1% Tween-20 and 1 mM DTT.
The prepared solutions were incubated at room temperature for 30 min and then the solution containing the donor beads was mixed with the solution containing the acceptor beads.
The tested compounds were dispensed onto a white 384-well AlphaPlate 384 SW. DMSO was backfilled to all wells, resulting in a final DMSO content of 2%. Wells containing only DMSO served as background. Next, 10 μl of solution with donor and acceptor beads was added to the wells.
The plate was sealed with transparent film and shaken using a VibroTurbulator for 60 sec at room temperature, level 3. The plate was then spun down shortly (10 s, 1000 rcf, room temperature) and incubated at 25° C. for 30 min.
The read-out was performed with PerkinElmer Enspire Multimode Plate Reader (method for AlphaLISA 384-well low volume, Filterset: λexc=680 nm, λem=615 nm).
The results were analyzed as follows: • 1) an average of luminescence for background signal was calculated and used as a negative control; • 2) average of the maximum measured luminescence for Compound 2 was calculated and used as an internal positive control; • 3) raw luminescence values were normalized against positive and negative controls; • 4) Normalized responses to Compound 2 were determined.

Chain of NEK7-HiBiT protein (Q8TDX7 whole entry): as the sequence (Q8TDX7 whole entry) above
Chain of NEK7-HiBiT protein (Q96SW2 whole entry, further chain): as the sequence (Q96SW2 whole entry) above
Chain of NEK7-HiBiT protein (Q16531 whole entry partner): as the sequence (Q16531 whole entry partner) above

Row | Molecule | Levels of NEK7-HiBiT Protein (as a % of DMSO control) (NEK7-HiBiT protein) | HTRF ternary complex Average pEC50 by molecule [1] | Normalized AlphaLISA ternary complex average signal at 1 μM molecule [2] | EC50 [1] [nM] | activation at 1 µM [2] [%]
1 | 3-(5-((2R,6R)-6-butyltetrahydro-2H-pyran-2-yl)-1-oxoisoindolin-2-yl)piperidine-2,6-dione and 3-(5-((2S,6S)-6-butyltetrahydro-2H-pyran-2-yl)-1-oxoisoindolin-2-yl)piperidine-2,6-dione [69 Isomer 2] | B (Levels of NEK7-HiBiT Protein > 25% and ≤50%) | ++++ (7.0 > pEC50 > 6.5) | B (Normalized activity > 20% and <80%) | – | –
2 | 3-(5-((2R,6S)-6-butyltetrahydro-2H-pyran-2-yl)-1-oxoisoindolin-2-yl)piperidine-2,6-dione and 3-(5-((2S,6R)-6-butyltetrahydro-2H-pyran-2-yl)-1-oxoisoindolin-2-yl)piperidine-2,6-dione [69 Isomer 1] | A (Levels of NEK7-HiBiT Protein ≤ 25%) | +++ (6.5 > pEC50 > 6.0) | A (Normalized activity > 80%) | – | –
3 | CCCCC1CCC(c2ccc3c(c2)CN(C2CCC(=O)NC2=O)C3=O)NC1 (mixture of isomers) [Compound 37, 3-(5-(5-butylpiperidin-2-yl)-1-oxoisoindolin-2-yl)piperidine-2,6-dione] | B (Levels of NEK7-HiBiT Protein > 25% and ≤50%) | – | – | 100 to 316 | > 80
4 | CCCCC1CCCC(c2ccc3c(c2)CN(C2CCC(=O)NC2=O)C3=O)N1 (mixture of isomers) [Compound 40, 3-(5-(6-butylpiperidin-2-yl)-1-oxoisoindolin-2-yl)piperidine-2,6-dione] | A (Levels of NEK7-HiBiT Protein ≤ 25%) | – | – | 100 to 316 | > 80
5 | O=C1CCC(N2Cc3cc(C4CCC(c5ccccc5)CN4)ccc3C2=O)C(=O)N1 (single isomer, unassigned) [32 Isomer 1, 3-(1-oxo-5-(5-phenylpiperidin-2-yl)isoindolin-2-yl)piperidine-2,6-dione] | D (Levels of NEK7-HiBiT Protein ≥ 75%) | – | C (Normalized activity > 10% and <20%) | > 3160 | –
6 | O=C1CCC(N2Cc3cc(C4CCC(c5ccccc5)CN4)ccc3C2=O)C(=O)N1 (single isomer, unassigned) [32 Isomer 2, 3-(1-oxo-5-(5-phenylpiperidin-2-yl)isoindolin-2-yl)piperidine-2,6-dione] | A (Levels of NEK7-HiBiT Protein ≤ 25%) | – | A (Normalized activity > 80%) | 316 to 1000 | –
7 | CC(=O)NC1CCC(c2ccc3c(c2)CN(C2CCC(=O)NC2=O)C3=O)NC1 (single isomer, unassigned) [33 Isomer 1, N-(6-(2-(2,6-dioxopiperidin-3-yl)-1-oxoisoindolin-5-yl)piperidin-3-yl)acetamide] | A (Levels of NEK7-HiBiT Protein ≤ 25%) | – | – | 100 to 316 | 20 to 80
8 | O=C1CCC(N2Cc3cc(C4CCC(Cc5ccccc5)CN4)ccc3C2=O)C(=O)N1 (single isomer, unassigned) [35 Isomer 2, 3-(5-(5-benzylpiperidin-2-yl)-1-oxoisoindolin-2-yl)piperidine-2,6-dione] | B (Levels of NEK7-HiBiT Protein > 25% and ≤50%) | – | – | – | –
9 | CC(C)(C)C(=O)OCN1C(=O)CCC(N2Cc3cc(C4CCCCN4)ccc3C2=O)C1=O (centres unmarked) [Compound 63, (2,6-dioxo-3-(1-oxo-5-(piperidin-2-yl)isoindolin-2-yl)piperidin-1-yl)methyl pivalate] | A (Levels of NEK7-HiBiT Protein ≤ 25%) | – | – | – | –
